Values of other authors in paper PMC8201753 (ACS Medicinal Chemistry Letters, 2021).

System: ERα-dependent cells
Conditions: cited from earlier work

## C=CC(C)(C)OC[C@H]1O[C@H](O[C@@H]2C3=C([C@H](C)COC(C)=O)C[C@H](O)[C@]3(C)/C=C3/[C@@H](COC)CC[C@H]3[C@@H](C)[C@H]2O)[C@H](O)[C@@H](OC(C)=O)[C@@H]1O [FC-A, fusicoccin-A]
  Growth of ERα-dependent cells: blocks growth
